Data: patent publication US10030027B2, “Soluble guanylate cyclase stimulators” (MERCK SHARP & DOHME CORP., priority 2015, dated 2018)

Tests used:
[1] = tested on: hypoxia-induced pulmonary hypertension rat; assay: Acute efficacy in hypoxia-induced pulmonary hypertension in rat following intratracheal administration; format: in vivo
Excerpt: Acute Efficacy in Hypoxia-Induced Pulmonary Hypertension in Rat Following Intratracheal Administration Charles River Sprague-Dawley (CD) male rats weighing approximately 350 g were implanted with HD-S21 dual pressure telemetry transmitters (Data Sciences International (DSI)) into the pulmonary artery and femoral artery. This transmitter enables simultaneous measurement of both pulmonary and systemic hemodynamic parameters in the same animal. After a 7-10 day post-operative recovery period, animals were subjected to a normobaric hypoxic (10% oxygen) environment using a Higher Peak Mountain Air Generator (MAG-10) connected to a modified rodent cage via a fitted inlet port. Oxygen (at 10%), temperature, humidity, and CO2 were controlled within normal range and animals were maintained on a 12 hour light-dark cycle with ad libitum access to food and water. After two weeks exposure to 10% O2 hypoxic environment, systolic pulmonary arterial pressure readings increased from 25 mmHg to greater than 50 mmHg. Using a 48 hour baseline average, animals with readings between 50-110 mmHg (standard deviation of less than 10 mmHg) and minimal changes in systolic systemic blood pressure were enrolled for study. Animals were utilized for up to 2 studies per week for 4 weeks with a minimum of 2 days washout between doses of test agent. Compound or vehicle was administered intra-tracheally under light isoflurane anesthesia (5% in oxygen; flow rate 2.0 L/min for 3 minutes). Once anesthetized, rats were placed on an angled intubation stand in supine position and the trachea visualized using a small laryngoscope. Animals then received either 0.5 mL/kg of vehicle or 0.5 mL/kg vehicle containing compound intra-tracheally delivered via microsprayer by use of a Penn-Century Microsprayer® needle 3″ (Model IA-1B-GP) attached to a 1 mL high pressure syringe (Penn Century-Model B-SYR-PL1000) (Penn-Century, Philadelphia, Pa.). The Microsprayer® tip was inserted into the trachea up to the point at which the bend in the needle is close to the tip of the snout, which positions the tip of the Microsprayer® in front of the carina (bifurcation of trachea at the bronchi). After dose delivery the animal is placed on its back in the home cage for recovery. Hemodynamic measurements were continuously recorded and readings consolidated to hourly moving averages. Each animal received a vehicle on Day 1 followed by vehicle or test agent on Day 2. Change from vehicle baseline was calculated by subtracting the hourly Day 1 vehicle response from the hourly Day 2 response and treatment group data was expressed as mean±SEM. Decreases of systolic blood pressure (SBP) and systolic pulmonary arterial pressure (PAP) were measured at a particular IT dose (mpk milligrams per kilogram) for the following Example compounds.

sGC α1/β1 heterodimer = sGC α1/β1 heterodimer (Homo sapiens (Human), UniProt Q02108+Q02153); assay: Cell-based sGC functional assay (cyclic GMP assay for sGC activator: CASA assay); settings: CHO-K1/sGC cells; for Emax: CHO-K1, activity expressed as percentage of compound A (standard), read-out: % Activation; for EC50: inflection point, 4P fit, read-out: IP
How it was run: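 CHO-K1 cells stably expressing sGC α1/β1 were pre-incubated with or without 1 μM DETA-NO (30 min, 25 °C), then exposed to compounds for 1 hr at 37 °C with 0.5 mM IBMX. Intracellular cGMP was read by HTRF and expressed as a percentage of a reference heme-dependent activator's maximum.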

[2] = biological target: human recombinant sGC enzyme (Homo sapiens (Human), UniProt Q02108+Q02153); assay: Size Exclusion Chromatography (SEC) competition binding assay using [3H] Ex-77B as the radioligand; settings: [3H] Ex-77B radioligand, 24 hours at 37° C.
How it was run: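 Recombinant human sGC binding measured by competition against tritiated Ex-77B radioligand, with non-specific binding defined by 1 μM unlabeled Ex-77B.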

SMILES: CC(C)(Cc1coc(C2(C)C(=O)Nc3nc(-c4nn(Cc5cccc(F)c5)c5cc(F)ccc45)nc(N)c32)n1)C(=O)O (stereo not shown) [Example 195A, 3-(2-{4-amino-2-[6-fluoro-1-(3-fluorobenzyl)-1H-indazol-3-yl]-5-methyl-6-oxo-6,7-dihydro-5H-pyrrolo[2,3-d]pyrimidin-5-yl}-1,3-oxazol-4-yl)-2,2-dimethyl-propanoic acid]
- Category: decrease in SBP (at minimum decrease in PAP of ≥15 mmHg) ([1]; Dose IT 0.01 mpk): B (decrease in SBP 5-10 mmHg)
- Emax (sGC α1/β1 heterodimer): 103%
- EC50 (sGC α1/β1 heterodimer): 194 nM
- Ki [2]: 0.092 nM

SMILES: CC(C)(Cc1coc(C2(C)C(=O)Nc3nc(-c4nn(Cc5ccccc5F)c5cc(Cl)ccc45)nc(N)c32)n1)C(=O)O (stereo not shown) [Example 3A, 3-(2-{4-amino-2-[6-chloro-1-(2-fluorobenzyl)-1H-indazol-3-yl]-5-methyl-6-oxo-6,7-dihydro-5H-pyrrolo[2,3-d]pyrimidin-5-yl)oxazol-4-yl}-2,2-dimethyl-propanoic acid]
- Category: decrease in SBP (at minimum decrease in PAP of ≥15 mmHg) ([1]; Dose IT 0.01 mpk): A (decrease in SBP 0-5 mmHg)
- Emax (sGC α1/β1 heterodimer): 126%
- EC50 (sGC α1/β1 heterodimer): 183 nM
- Ki [2]: 0.067 nM

SMILES: CC(C)(CCc1coc(C2(C)C(=O)Nc3nc(-c4nn(Cc5ccccc5F)c5ccccc45)nc(N)c32)n1)C(=O)O (stereo not shown) [Example 220B, 4-(2-{4-amino-2-[1-(2-fluorobenzyl)-1H-indazol-3-yl]-5-methyl-6-oxo-6,7-dihydro-5H-pyrrolo[2,3-d]pyrimidin-5-yl}-1,3-oxazol-4-yl)-2,2-dimethyl-butanoic acid]
- Category: decrease in SBP (at minimum decrease in PAP of ≥15 mmHg) ([1]; Dose IT 0.01 mpk): B (decrease in SBP 5-10 mmHg)
- Emax (sGC α1/β1 heterodimer): 113%
- EC50 (sGC α1/β1 heterodimer): 82 nM
- Ki [2]: 0.087 nM

SMILES: C[C@@]1(c2ccc(CCc3nn[nH]n3)cc2)C(=O)Nc2nc(-c3nn(Cc4ccccc4F)c4cc(Cl)ccc34)nc(N)c21 [Example 112B, (S)-4-Amino-2-[6-chloro-1-(2-fluorobenzyl)-1H-indazol-3-yl]-5-methyl-5-{4-[2-(2H-tetrazol-5-yl)ethyl]phenyl}-5,7-dihydro-6H-pyrrolo[2,3-d]pyrimidin-6-one]
- Category: decrease in SBP (at minimum decrease in PAP of ≥15 mmHg) ([1]; Dose IT 0.01 mpk): A (decrease in SBP 0-5 mmHg)
- Emax (sGC α1/β1 heterodimer): 130%
- EC50 (sGC α1/β1 heterodimer): 2520 nM
- Ki [2]: 0.066 nM

SMILES: CC1(c2cn(CCC(=O)O)nn2)C(=O)Nc2nc(-c3nn(CCC(F)(F)C(F)(F)F)c4ncccc34)nc(N)c21 (stereo not shown) [Example 12B, 3-(4-{4-amino-5-methyl-6-oxo-2-[1-(3,3,4,4,4-pentafluorobutyl)-1H-pyrazolo[3,4-b]pyridin-3-yl]-6,7-dihydro-5H-pyrrolo[2,3-d]pyrimidin-5-yl}-1H-1,2,3-triazol-1-yl)propanoic acid]
- Category: decrease in SBP (at minimum decrease in PAP of ≥15 mmHg) ([1]; Dose IT 0.1 mpk): B (decrease in SBP 5-10 mmHg)
- Emax (sGC α1/β1 heterodimer): 81%
- EC50 (sGC α1/β1 heterodimer): 2880 nM
- Ki [2]: 2.04 nM

SMILES: C[C@@]1(c2ccc(CCC(=O)O)cc2)C(=O)Nc2nc(-c3nn(CC4CCCC4)c4cc(Cl)ccc34)nc(N)c21 [Example 160B, (S)-3-(4-{4-amino-2-[6-chloro-1-(cyclopentylmethyl)-1H-indazol-3-yl]-5-methyl-6-oxo-6,7-dihydro-5H-pyrrolo[2,3-d]pyrimidin-5-yl}phenyl)propanoic acid]
- Category: decrease in SBP (at minimum decrease in PAP of ≥15 mmHg) ([1]; Dose IT 0.01 mpk): B (decrease in SBP 5-10 mmHg)
- Emax (sGC α1/β1 heterodimer): 108%
- EC50 (sGC α1/β1 heterodimer): 111 nM
- Ki [2]: 0.062 nM

SMILES: CC1(c2nc(CCC(=O)O)c[nH]2)C(=O)Nc2nc(-c3nn(Cc4ccccc4F)c4cc(Cl)ccc34)nc(N)c21 (stereo not shown) [Example 235B, 3-(2-{4-Amino-2-[6-chloro-1-(2-fluorobenzyl)-1H-indazol-3-yl]-5-methyl-6-oxo-6,7-dihydro-5H-pyrrolo[2,3-d]pyrimidin-5-yl}-1H-imidazol-4-yl)propanoic acid]
- Category: decrease in SBP (at minimum decrease in PAP of ≥15 mmHg) ([1]; Dose IT 0.01 mpk): A (decrease in SBP 0-5 mmHg)
- Emax (sGC α1/β1 heterodimer): 86.8%
- EC50 (sGC α1/β1 heterodimer): 626 nM
- Ki [2]: 0.404 nM
